Where two headings read alike, the source gives them in different places.
Columns and labels:
S. aureus LS-1 = test: S. aureus infection model in mice, minimal effective dose; format: in vivo; set-up: Development of swollen joints following infection: unit not given here; conditions: for Development of swollen joints following infection: mice
Experimental: In relation to the methods described in J. Med. Microbiol. 46, 208-213 (1997), compounds may be evaluated in vivo using a model S. Aureus strain LS-1 which, when injected intravenously into mice, consistently causes transient bacteraemia followed by joint localization in 3-4 days. Normal control mice show inflammation of 50-60% of their joints within 3-4 days. The severity of joint sepsis was measured using calipers to determine the diameter of the affected joints. In general, five groups of mice normally having a mean weight of between 18-28 g (5 mice per group) are used for each compound tested, wherein each group is infected with S. Aureus and then provided with a certain dose of the compound to be tested (with one group acting a control).
Determination of minimal effective dose of title compound of Example 2 in S. aureus infection model.
Mice were infected with S. aureus LS-1 (50 million cfu by iv injection) and treated with graded doses of the compound of Example 2 (iv injection within 30 minutes). Each group contained 5 mice and comprised the following.
Group 1: S. aureus LS-1 only
Group 2: S. aureus LS-1 plus 60 mg/kg of the compound of Example 2
Group 3: S. aureus LS-1 plus 40 mg/kg of the compound of Example 2
Group 4: S. aureus LS-1 plus 20 mg/kg of the compound of Example 2
Group 5: S. aureus LS-1 plus 10 mg/kg of the compound of Example 2
Mice were assessed daily for weight loss, development of swollen joints and morbidity/mortality.

[1] = tested on: Mycobacter fortuitum (NCTC 10394); test: MIC, Mycobacter fortuitum; format: cell-based; conditions: Mycolicibacterium fortuitum, NCTC10394, read-out: Minimum inhibitory concentrations (MICs), M. fortuitum
Experimental: The effects of compounds of the invention in relation to inhibiting the growth of various microorganisms was determined using methods known to those skilled in the art, for example in vitro methods as described in J. Med. Chem. 47, 2133-2156 (2004) and in vivo methods as described in J. Med. Microbiol. 46, 208-213 (1997), the disclosures of which documents are hereby incorporated by reference. In particular, minimum inhibitory concentrations (MICs) against microorganisms (e.g. S. Aureus, Streptococcus faecalis, Aspergillus niger, Candida albicans or Mycobacterium fortuitum) for compounds of the invention may be measured using procedures such as those described in A. J. Drummond and […] development of microbiological methods for phytochemical screening” Recent Res. Devel. […] The test wells on each 96 well microtitre plate were initially inoculated with culture medium (100 μL) using Mueller-Hinton Broth for antibacterial assays and Sabouraud Broth for antifungal assays. A solution of each test sample (100 μL) was added to one row of each plate and a series of doubling dilutions made for successive rows. Incubation was at 37° C. for antibacterial assay and 25° C. for antifungal assay. […] From the observed pattern of colour, the MIC was determined. All tests included sterility and growth controls.

`Cn1cc(NC(=O)c2cc(NC(=O)c3ccc(/C=C/c4cnc5ccccc5c4)cc3)cn2C)cc1C(=O)NCCN1CCOCC1` [Example 2, 1-Methyl-4-({[1-methyl-4-({4-[(E)-2-(3-quinolinyl)ethenyl]benzoyl}amino)-1H-pyrrol-2-yl]carbonyl}amino)-N-[2-(4-morpholinyl)ethyl]-1H-pyrrole-2-carboxamide] was tested, and the “Weight loss of mice after infection: Mean mouse weight (g) after” value (from here on “Weight loss of mice after infection”) (S. aureus LS-1; Group 2, 60 mg/kg iv, Day 2) was 27.1 g, the “Weight loss of mice after infection” value (S. aureus LS-1; Group 2, 60 mg/kg iv, Day 5) was 26.3 g and the “Weight loss of mice after infection” value (S. aureus LS-1; Group 2, 60 mg/kg iv, Day 7) was 26.1 g. The “Mortality rate of mice following infection” value (“Mortality rate” below) (S. aureus LS-1; Group 2, 60 mg/kg iv, day 2 post infection) was 0/5, the “Mortality rate” value (S. aureus LS-1; Group 2, 60 mg/kg iv, day 3 post infection) was 0/5 and the “Mortality rate” value (S. aureus LS-1; Group 2, 60 mg/kg iv, day 4 post infection) was 1/5. For the same compound, the “Mortality rate” value (S. aureus LS-1; Group 2, 60 mg/kg iv, day 5 post infection) was 1/5, the “Mortality rate” value (S. aureus LS-1; Group 2, 60 mg/kg iv, day 6 post infection) was 1/5 and the “Mortality rate” value (S. aureus LS-1; Group 2, 60 mg/kg iv, day 7 post infection) was 1/5. For the same compound, the “Weight loss of mice after infection” value (S. aureus LS-1; Group 3, 40 mg/kg iv, Day 2) was 27.0 g, the “Weight loss of mice after infection” value (S. aureus LS-1; Group 3, 40 mg/kg iv, Day 5) was 26.4 g and the “Weight loss of mice after infection” value (S. aureus LS-1; Group 3, 40 mg/kg iv, Day 7) was 26.0 g. The “Mortality rate” value (S. aureus LS-1; Group 3, 40 mg/kg iv, day 2 post infection) was 0/5, the “Mortality rate” value (S. aureus LS-1; Group 3, 40 mg/kg iv, day 3 post infection) was 0/5 and the “Mortality rate” value (S. aureus LS-1; Group 3, 40 mg/kg iv, day 4 post infection) was 0/5. The “Mortality rate” value (S. aureus LS-1; Group 3, 40 mg/kg iv, day 5 post infection) was 0/5, the “Mortality rate” value (S. aureus LS-1; Group 3, 40 mg/kg iv, day 6 post infection) was 0/5 and the “Mortality rate” value (S. aureus LS-1; Group 3, 40 mg/kg iv, day 7 post infection) was 0/5. The “Weight loss of mice after infection” value (S. aureus LS-1; Group 4, 20 mg/kg iv, Day 2) was 27.6 g, the “Weight loss of mice after infection” value (S. aureus LS-1; Group 4, 20 mg/kg iv, Day 5) was 25.4 g and the “Weight loss of mice after infection” value (S. aureus LS-1; Group 4, 20 mg/kg iv, Day 7) was 25.1 g. The “Mortality rate” value (S. aureus LS-1; Group 4, 20 mg/kg iv, day 2 post infection) was 0/5, the “Mortality rate” value (S. aureus LS-1; Group 4, 20 mg/kg iv, day 3 post infection) was 0/5 and the “Mortality rate” value (S. aureus LS-1; Group 4, 20 mg/kg iv, day 4 post infection) was 0/5. For the same compound, the “Mortality rate” value (S. aureus LS-1; Group 4, 20 mg/kg iv, day 5 post infection) was 1/5, the “Mortality rate” value (S. aureus LS-1; Group 4, 20 mg/kg iv, day 6 post infection) was 2/5 and the “Mortality rate” value (S. aureus LS-1; Group 4, 20 mg/kg iv, day 7 post infection) was 3/5. For the same compound, the “Weight loss of mice after infection” value (S. aureus LS-1; Group 5, 10 mg/kg iv, Day 2) was 26.9 g, the “Weight loss of mice after infection” value (S. aureus LS-1; Group 5, 10 mg/kg iv, Day 5) was 23.0 g and the “Weight loss of mice after infection” value (S. aureus LS-1; Group 5, 10 mg/kg iv, Day 7) was 22.6 g. The “Mortality rate” value (S. aureus LS-1; Group 5, 10 mg/kg iv, day 2 post infection) was 0/5, the “Mortality rate” value (S. aureus LS-1; Group 5, 10 mg/kg iv, day 3 post infection) was 0/5 and the “Mortality rate” value (S. aureus LS-1; Group 5, 10 mg/kg iv, day 4 post infection) was 0/5. The “Mortality rate” value (S. aureus LS-1; Group 5, 10 mg/kg iv, day 5 post infection) was 0/5, the “Mortality rate” value (S. aureus LS-1; Group 5, 10 mg/kg iv, day 6 post infection) was 1/5 and the “Mortality rate” value (S. aureus LS-1; Group 5, 10 mg/kg iv, day 7 post infection) was 2/5. For the same compound, the “Development of swollen joints following infection” value (“Development” for short) (S. aureus LS-1; count n/N, Group 2, 60 mg/kg iv, day 2 post infection) was 0/20, the “Development” value (S. aureus LS-1; count n/N, Group 2, 60 mg/kg iv, day 3 post infection) was 0/20 and the “Development” value (S. aureus LS-1; count n/N, Group 2, 60 mg/kg iv, day 4 post infection) was 0/16. The “Development” value (S. aureus LS-1; count n/N, Group 2, 60 mg/kg iv, day 5 post infection) was 0/16, the “Development” value (S. aureus LS-1; count n/N, Group 2, 60 mg/kg iv, day 6 post infection) was 0/16 and the “Development” value (S. aureus LS-1; count n/N, Group 2, 60 mg/kg iv, day 7 post infection) was 0/16. For the same compound, the “Development” value (S. aureus LS-1; count n/N, Group 3, 40 mg/kg iv, day 2 post infection) was 0/20, the “Development” value (S. aureus LS-1; count n/N, Group 3, 40 mg/kg iv, day 3 post infection) was 0/20 and the “Development” value (S. aureus LS-1; count n/N, Group 3, 40 mg/kg iv, day 4 post infection) was 2/20. The “Development” value (S. aureus LS-1; count n/N, Group 3, 40 mg/kg iv, day 5 post infection) was 3/20, the “Development” value (S. aureus LS-1; count n/N, Group 3, 40 mg/kg iv, day 6 post infection) was 3/20 and the “Development” value (S. aureus LS-1; count n/N, Group 3, 40 mg/kg iv, day 7 post infection) was 3/20. For the same compound, the “Development” value (S. aureus LS-1; count n/N, Group 4, 20 mg/kg iv, day 2 post infection) was 1/20, the “Development” value (S. aureus LS-1; count n/N, Group 4, 20 mg/kg iv, day 3 post infection) was 1/20 and the “Development” value (S. aureus LS-1; count n/N, Group 4, 20 mg/kg iv, day 4 post infection) was 2/20. For the same compound, the “Development” value (S. aureus LS-1; count n/N, Group 4, 20 mg/kg iv, day 5 post infection) was 1/16, the “Development” value (S. aureus LS-1; count n/N, Group 4, 20 mg/kg iv, day 6 post infection) was 6/20 and the “Development” value (S. aureus LS-1; count n/N, Group 4, 20 mg/kg iv, day 7 post infection) was 4/12. The “Development” value (S. aureus LS-1; count n/N, Group 5, 10 mg/kg iv, day 2 post infection) was 1/20, the “Development” value (S. aureus LS-1; count n/N, Group 5, 10 mg/kg iv, day 3 post infection) was 1/20 and the “Development” value (S. aureus LS-1; count n/N, Group 5, 10 mg/kg iv, day 4 post infection) was 2/20. For the same compound, the “Development” value (S. aureus LS-1; count n/N, Group 5, 10 mg/kg iv, day 5 post infection) was 2/20, the “Development” value (S. aureus LS-1; count n/N, Group 5, 10 mg/kg iv, day 6 post infection) was 5/16 and the “Development” value (S. aureus LS-1; count n/N, Group 5, 10 mg/kg iv, day 7 post infection) was 4/12. For the same compound, the “Development” value (S. aureus LS-1; figure in parentheses, Group 2, 60 mg/kg iv, day 2 post infection) was 0, the “Development” value (S. aureus LS-1; figure in parentheses, Group 2, 60 mg/kg iv, day 3 post infection) was 0 and the “Development” value (S. aureus LS-1; figure in parentheses, Group 2, 60 mg/kg iv, day 4 post infection) was 0. For the same compound, the “Development” value (S. aureus LS-1; figure in parentheses, Group 2, 60 mg/kg iv, day 5 post infection) was 0, the “Development” value (S. aureus LS-1; figure in parentheses, Group 2, 60 mg/kg iv, day 6 post infection) was 0 and the “Development” value (S. aureus LS-1; figure in parentheses, Group 2, 60 mg/kg iv, day 7 post infection) was 0. The “Development” value (S. aureus LS-1; figure in parentheses, Group 3, 40 mg/kg iv, day 2 post infection) was 0, the “Development” value (S. aureus LS-1; figure in parentheses, Group 3, 40 mg/kg iv, day 3 post infection) was 0 and the “Development” value (S. aureus LS-1; figure in parentheses, Group 3, 40 mg/kg iv, day 4 post infection) was 10. For the same compound, the “Development” value (S. aureus LS-1; figure in parentheses, Group 3, 40 mg/kg iv, day 5 post infection) was 15, the “Development” value (S. aureus LS-1; figure in parentheses, Group 3, 40 mg/kg iv, day 6 post infection) was 15 and the “Development” value (S. aureus LS-1; figure in parentheses, Group 3, 40 mg/kg iv, day 7 post infection) was 15. For the same compound, the “Development” value (S. aureus LS-1; figure in parentheses, Group 4, 20 mg/kg iv, day 2 post infection) was 5, the “Development” value (S. aureus LS-1; figure in parentheses, Group 4, 20 mg/kg iv, day 3 post infection) was 5 and the “Development” value (S. aureus LS-1; figure in parentheses, Group 4, 20 mg/kg iv, day 4 post infection) was 10. For the same compound, the “Development” value (S. aureus LS-1; figure in parentheses, Group 4, 20 mg/kg iv, day 5 post infection) was 6.3, the “Development” value (S. aureus LS-1; figure in parentheses, Group 4, 20 mg/kg iv, day 6 post infection) was 30 and the “Development” value (S. aureus LS-1; figure in parentheses, Group 4, 20 mg/kg iv, day 7 post infection) was 33. For the same compound, the “Development” value (S. aureus LS-1; figure in parentheses, Group 5, 10 mg/kg iv, day 2 post infection) was 5, the “Development” value (S. aureus LS-1; figure in parentheses, Group 5, 10 mg/kg iv, day 3 post infection) was 5 and the “Development” value (S. aureus LS-1; figure in parentheses, Group 5, 10 mg/kg iv, day 4 post infection) was 10. The “Development” value (S. aureus LS-1; figure in parentheses, Group 5, 10 mg/kg iv, day 5 post infection) was 10, the “Development” value (S. aureus LS-1; figure in parentheses, Group 5, 10 mg/kg iv, day 6 post infection) was 31 and the “Development” value (S. aureus LS-1; figure in parentheses, Group 5, 10 mg/kg iv, day 7 post infection) was 33. For the same compound, the MIC ([1]; value in parentheses, na = not active) was 50 mg/L and the MIC ([1]; value outside parentheses) was 67 µM.

— patent publication US8012967B2, “Minor groove binders” (University of Strathclyde, priority 2006, dated 2011)
